Reference: a compilation of properties of binary mixtures (doi:10.1016/j.molliq.2018.07.077)

Experiment: xn = mol fraction of the nth substance listed
Settings: 101 kPa

C[n+]1ccn(CCCC#N)c1.O=S(=O)([O-])C(F)(F)F + CC#N
Settings	electrical conductivity [S/m]	viscosity [mPa·s]
288.15 K, x1 = 0.2002	1.88	6.79
288.15 K, x1 = 0.4006	0.55	70.7
288.15 K, x1 = 0.6005	0.175	160
288.15 K, x1 = 0.698	0.07	340
288.15 K, x1 = 0.7996	0.053	579
288.15 K, x1 = 0.9007	0.031	874
288.15 K, x1 = 1	0.023	1182
293.15 K, x1 = 0.1002	2.87	1.51
293.15 K, x1 = 0.2002	2.08	5.95
293.15 K, x1 = 0.2994	1.19	14.1
293.15 K, x1 = 0.4006	0.651	55.5
293.15 K, x1 = 0.5	0.246	85.7
293.15 K, x1 = 0.698	0.093	255
293.15 K, x1 = 0.7996	0.079	417
293.15 K, x1 = 0.9007	0.044	625
293.15 K, x1 = 1	0.033	811
298.15 K, x1 = 0.1002	3.04	1.4
298.15 K, x1 = 0.2002	2.28	5.23
298.15 K, x1 = 0.2994	1.35	12.15
298.15 K, x1 = 0.4006	0.766	44.44
298.15 K, x1 = 0.5	0.315	68.6
298.15 K, x1 = 0.6005	0.278	92
298.15 K, x1 = 0.698	0.124	195.4
298.15 K, x1 = 0.9007	0.061	450
298.15 K, x1 = 1	0.046	581
303.15 K, x1 = 0.1002	3.22	1.3
303.15 K, x1 = 0.2002	2.49	4.65
303.15 K, x1 = 0.2994	1.51	10.55
303.15 K, x1 = 0.4006	0.896	36.24
303.15 K, x1 = 0.5	0.394	54.8
303.15 K, x1 = 0.6005	0.345	72.2
303.15 K, x1 = 0.698	0.163	149
303.15 K, x1 = 0.7996	0.151	230
308.15 K, x1 = 0.1002	3.41	1.21
308.15 K, x1 = 0.2002	2.69	4.18
308.15 K, x1 = 0.4006	1.03	29.81
308.15 K, x1 = 0.5	0.485	44.07
308.15 K, x1 = 0.6005	0.419	57.2
308.15 K, x1 = 0.698	0.213	116.3
308.15 K, x1 = 0.7996	0.193	174
308.15 K, x1 = 0.9007	0.106	245
313.15 K, x1 = 0.1002	3.57	1.13
313.15 K, x1 = 0.2994	1.88	8.05
313.15 K, x1 = 0.4006	1.17	24.79
313.15 K, x1 = 0.6005	0.5	46.5
313.15 K, x1 = 0.698	0.274	91.3
313.15 K, x1 = 0.9007	0.135	185
313.15 K, x1 = 1	0.104	231
318.15 K, x1 = 0.2002	3.08	3.41
318.15 K, x1 = 0.2994	2.08	7.12
318.15 K, x1 = 0.4006	1.32	21.09
318.15 K, x1 = 0.6005	0.593	37.8
318.15 K, x1 = 0.7996	0.288	104.7
318.15 K, x1 = 1	0.131	177.1
323.15 K, x1 = 0.2002	3.28	3.13
323.15 K, x1 = 0.2994	2.29	6.32
323.15 K, x1 = 0.4006	1.48	18.37
323.15 K, x1 = 0.5	0.781	25.17
323.15 K, x1 = 0.698	0.44	61.3
323.15 K, x1 = 0.7996	0.341	83.4
323.15 K, x1 = 0.9007	0.205	104.8
323.15 K, x1 = 1	0.161	141.4
